Laboratory results taken from patent US11213513B2, “Compositions and methods for promoting hair growth with Mpc1 inhibitors” (The Regents of the University of California, priority 2017, dated 2022).
“Also recorded” adds a separate entry of the source.

Tests used:
Assay type in all cases: in vivo, mouse
[1] = system: wildtype C57BL/6J animals; assay: Topical treatment of shaved telogen (day 50) mice, monitoring pigmentation, hair growth and hair cycle
Excerpt: Animals were acquired from Jackson Labs (K15-CrePR, Lgr5-CreER and Lgr6-CreER), Rutter Lab (Mpc^fl/fl) and Seth Lab (Ldha^fl/fl) (Xie, H. et al., Cell Metab., 19, 795-809 (2014)) and maintained under conditions set forth by IUCUC and ARC. For experiments that include analysis of the telogen stage of the hair cycle, animals were harvested at post-natal day 50, for telogen-anagen transition animals were harvested at day 70, and for anagen animals were harvested at post-natal day 90. For experiments that include analysis of transgenic animals, K15-CrePR animals were shaved and treated by intraperitoneal injections of mifepristone and Lgr5-CreER and Lgr6-CreER animals were shaved and treated with tamoxifen (10 mg/ml dissolved in sunflower seed oil, 2 mg per day for 3 days) during telogen (post-natal day 50), and monitored for hair regrowth following shaving. Phenotypes shown from treated animals were produced 3-4 weeks after mifepristone administration. For FIG. 3, wildtype C57BL/6J animals were shaved at post-natal day 50 and treated topically with Transderma PLO Gel ([…] lecithin organogel), PLO Gel Ultramax Base (TR220) (vehicle), or the compound of formula (I) (Compound (I)) (20 μM) (Sigma Aldrich product PZ0160) for indicated periods of time. Both male and female animals were used in this study in approximately equal numbers with no apparent difference in phenotype between genders. All phenotypes described are representative of a minimum of n=3 littermate pairs as indicated in the description of each experiment. No statistical measure was used to determine the sample size beforehand, nor were statistics used to measure effects, as the results were essentially positive or negative as represented in the figures. The results described include data from all treated animals. The investigators were not blinded to allocation during the experimental data collection, nor were the experiments randomized. The results shown were representative images from at least three independently treated animals, and genotyping was performed both before and after animal treatment for confirmation.
Tissues were isolated from the indicated genotypes and embedded fresh in optimal cutting temperature (OCT) compound for frozen tissue preparations, or fixed overnight in 4% formalin and embedded in paraffin. For frozen tissue, sectioning was performed on a Leica 3200 Cryostat, and fixed for 5 minutes in 4% paraformaldehyde. Paraffin embedded tissue was sectioned, de-paraffinized, and prepared for histology. All sections prepared for staining were blocked in staining buffer containing appropriate control IgG (Goat, Rabbit etc.). Immunohistochemistry was performed on formalin-fixed paraffin-embedded tissue with citrate or Tris buffer antigen retrieval with the following antibodies: Ki67 (Abcam ab16667, 1:50), p-S6 (Cell Signaling CST2215, 1:50), Sox9 (Abcam ab185230, 1:1000), Ldha (Abcam ab47010, 1:100), Ldh (Abcam ab125683, 1:100), p-Stat3 (Abcam ab68153, 1:200), p-Stat1 (Abcam ab109461, 1:200), p-Stat5 (Abcam ab32364; 1:50), Gli3 (Abcam ab6050; 1:100), β-catenin (Abcam ab32572; 1:500). The DAKO EnVision+ HRP Peroxidase System (Dako K400911-2) and Dako AEC Substrate Chromogen (Dako K346430-2) was used for detection. Images were collected on an Olympus BX43 Upright Microscope and Zeiss Model Axio Imager M1 Upright Fluorescence Microscope. Protein samples for western blots and enzymatic assays were extracted from FACS sorted epidermal populations in RIPA lysis buffer (Pierce) with Halt protease and phosphatase inhibitors (Thermo-Fisher) and precipitated in acetone for concentration. The following antibodies were used: β-actin (Abcam ab8227; 1:1000), β-actin (Santa Cruz sc-47778; 1:1000), C-Myc (Abcam ab32072; 1:1000), N-Myc (Santa Cruz sc-53993; 1:200), H3K27Ac (Abcam ab177178; 1:200), Mpc1 (Sigma HPA045119).
Both male and female animals were used in this study in approximately equal numbers with no apparent difference in phenotype between genders. […]

[2] = system: Ldh; assay: In situ Ldh enzyme activity assay in epidermis of topically treated animals; conditions: in situ stain
Excerpt: (§1) Animals were acquired from Jackson Labs (K15-CrePR, Lgr5-CreER and Lgr6-CreER), Rutter Lab (Mpc^fl/fl) and Seth Lab (Ldha^fl/fl) (Xie, H. et al., Cell Metab., 19, 795-809 (2014)) and maintained under conditions set forth by IUCUC and ARC. For experiments that include analysis of the telogen stage of the hair cycle, animals were harvested at post-natal day 50, for telogen-anagen transition animals were harvested at day 70, and for anagen animals were harvested at post-natal day 90. For experiments that include analysis of transgenic animals, K15-CrePR animals were shaved and treated by intraperitoneal injections of mifepristone and Lgr5-CreER and Lgr6-CreER animals were shaved and treated with tamoxifen (10 mg/ml dissolved in sunflower seed oil, 2 mg per day for 3 days) during telogen (post-natal day 50), and monitored for hair regrowth following shaving. Phenotypes shown from treated animals were produced 3-4 weeks after mifepristone administration. For FIG. 3, wildtype C57BL/6J animals were shaved at post-natal day 50 and treated topically with Transderma PLO Gel (premium lecithin organogel), PLO Gel Ultramax Base (TR220) (vehicle), or the compound of formula (I) (Compound (I)) (20 μM) (Sigma Aldrich product PZ0160) for indicated periods of time. […]

[3] = system: HFSCs; assay: Metabolomic analysis (LC-MS) of lactate in HFSCs sorted from topically treated skin
Excerpt: as §1, with “administration.” for “administration. For FIG. 3, wildtype C57BL/6J animals were shaved at post-natal day 50 and treated topically with Transderma PLO Gel (premium lecithin organogel), PLO Gel Ultramax Base (TR220) (vehicle), or the compound of formula (I) (Compound (I)) (20 μM) (Sigma Aldrich product PZ0160) for indicated periods of time.”
Whole dorsal and ventral mouse skin were excised and floated on trypsin (0.25%) for 1 h at 37° C. or overnight at 4° C. […] The cells were then filtered through a […] cell strainer and stained for fluorescence-activated cell sorting (FACS) processing with CD34 Monoclonal Antibody (RAM34), FITC, eBioscience™ (Catalog #:11-0341-82) and CD49d (Integrin alpha 4) Monoclonal Antibody (R1-2), PE, eBioscience™ (Catalog #: 12-0492-81). […]

[4] = system: 17 month old mice; assay: Treatment of elderly (17 month old) shaved mice, hair coat re-growth; conditions: 20 uM in PLO gel every other day, up to 30 days after shaving; DMSO control patchy
Method: 17 month old mice were shaved and treated every other day with DMSO or 20 uM of the compound of formula (I) diluted in PLO gel (pluronic lecithin organogel). Images were acquired at the indicated day after shaving and carried out for 30 days.

[5] = topical treatment of animals in telogen (day 50)

N#CC(=Cc1cn(-c2ccccc2)c2ccccc12)C(=O)O [compound of formula (I)]
effect on proliferation of the interfollicular epidermis [1, 5]: minor hyperproliferation of the interfollicular epidermis | effect on the hair cycle [1, 5]: robust acceleration of the hair cycle | time of treatment to full anagen, indicated by full coat of hair ([1]; topical, 20 μM): 14 days | skin pathology: anagen entry (down growth of the follicle and hypodermal thickening) ([1]; topical, 20 μM, vehicle animals remained in telogen): entered an accelerated anagen at 8 weeks | time of treatment to pigmentation and hair growth, indicative of entry into anagen ([1]; topical, 20 μM, vehicle control showed none even after 12 days): 8 days | time to beginning of hair cycle acceleration (time to observed phenotype) ([1]; topical, at least 6 pairs of animals, vehicle vs compound): 3 to 5 days | Ldh enzyme activity in interfollicular epidermis ([2]; topical application for 48 hours during telogen): increased Ldh activity in the interfollicular epidermis; also recorded: also seen in interfollicular epidermis | Ldh enzyme activity in HFSCs ([2]; topically treated animals): strong activity in HFSCs | lactate levels, replicate experiment ([3]; 48-72 hours of treatment): increase in lactate levels | total levels of lactate in sorted HFSCs ([3]; topical application, 48 hours): increases total levels of lactate | hair coat re-growth in aged mice [4]: more complete re-growth; also recorded: more complete hair growth
